Where “and” joins values, the source holds several entries; their conditions need not be identical. Equal values may be shown once. Entries after “also recorded” stand apart in the source; their conditions may differ.
What was measured:
[1] = molecular target: T1, S1P1 (Rattus norvegicus (Rat), UniProt P48303); experiment: In vitro autoradiography of [18F]12a in rat brain slices, SEW2871 blocking; assay type: binding; details: rat brain sections, ~6 nM tracer, 10 μM SEW2871, 60 min RT
Protocol: Adult female Lewis rats (n=2, 100-125 g, Charles River) were used to perform the autoradiography study. The rats (n=2) was euthanized and the brains were collected and cut into 20 μm sequential sections using a Microm cryotome and mounted on glass slides. […] Following the incubation, the brain sections were washed and exposed to the Storage Phosphor Screen in an imaging cassette overnight in −20° C. at dark for 12 h. The distribution of radioactivity was visualized by a Fuji Bio-Imaging Analyzer FLA-7000 (Fuji Photo Film, Tokyo, Japan). Photo-stimulated luminescence (PSL) from the brain slices was quantified using Multi Gauge v3.0 software (Fuji Photo Film Co., Tokyo, Japan). Data were background-corrected, and expressed as photo-stimulated luminescence signals per square millimeter (PSL/mm^2).

[2] = Ex vivo biodistribution in female Lewis rats; set-up: species or system rat; details: for Tissue uptake, Blood / Tissue uptake, Bone / Tissue uptake, Brain / Tissue uptake, Fat / Tissue uptake, Heart / Tissue uptake, Kidney / Tissue uptake, Liver / Tissue uptake, Lung / Tissue uptake, Muscle / Tissue uptake, Pancreas / Tissue uptake, Spleen / Tissue uptake, Thymus: n = 4
From the text: Organs of blood, heart, lung, muscle, fat, pancreas, spleen, kidney, liver, thymus, brain, and bone were dissected and collected for counting. All the samples were counted with a dilution of the injectate on an automated well counter (Beckman Gamma 8000 well counter). Tissues were weighed and the uptake was reported as background and decay-corrected percent injected dose per gram (% ID/g).
The whole brains were quickly harvested and dissected into regions of cerebellum, brain stem, cortex, striatum, thalamus, and hippocampus, the remainder of the brain was also collected to determine the total brain uptake. Organs of blood, heart, lung, muscle, fat, pancreas, spleen, kidney, liver, thymus, and bone were also dissected and collected for counting. All the samples were counted with a dilution of the injectate on an automated well counter (Beckman Gamma 8000 well counter). Tissues were weighed and the uptake was reported as background and decay-corrected percent injected dose per gram (% ID/g).

[3] = molecular target: T1, S1P1; experiment: MicroPET and tracer kinetic modeling in EAE rat model, lumbar spinal cord; assay type: in vivo; details: for 2TCM Vd / LoganAIF Vd: lumbar spinal cord, n = 3-4
Protocol: MicroPET scans were performed using an Inveon PET/CT system (Siemens Inc., Knoxville, Tenn.). […] Each rat was secured to a custom-designed acrylic bed equipped with a nosecone for gas anesthesia. PET/CT scans were conducted under 1.5-2% isoflurane anesthesia with the rat placed in transaxial position and centered with the T13 vertebral spine in the field of view. […] A list mode protocol was used with 60-min dynamic data acquisition.
PET image data was processed using filter back projection algorithm with attenuation and scatter corrections. The data were reconstructed per time frame employing an iterative reconstructional algorithm (three-dimensional ordered subset expectation maximization (3D-OSEM), maximum a posteriori (MAP)) and corrected for decay, random coincidences, scatter, and attenuation. […] Image data was analyzed using Inveon Research Workstation software IRW 4.2 (Siemens Inc., Knoxville, Tenn.). The regions of interest (ROI), the lumbar spinal cord and bilateral common carotid arteries, were drawn over the co-registered PET/CT images using the standard protocol published previously. Time-activity curves (TACs) were obtained and were expressed as % ID/g. A two-tailed t-test was used for the comparison of the tracer uptake in EAE rat lumbar spinal cord versus sham. A P value less than 0.05 was considered statistically significant. Time-activity curves were further analyzed using 2-tissue-compartment model (2TCM), as well as Logan graphical analysis, using the ROI over bilateral common carotid arteries for image-based arterial blood input function.

[4] = Nonhuman primate (NHP) brain microPET scan; assay type: in vivo, macaques; details: normal NHP
Protocol: To examine if newly-synthesized S1P1 radioligands could cross the BBB of NHPs, two male macaques (9-10 kg) were studied with a microPET Focus 220 scanner (Concorde/CTI/Siemens Microsystems, Knoxville, Tenn.). The welfare of the animals conformed to the requirements of National Institutes of Health (NIH). This work was conducted at the Nonhuman Primate Facility of Washington University in St. Louis with approval from the IACUC. Animals were maintained in facilities with 12-hour dark and light cycles, given access to food and water ad libitum and provided a variety of psychologically enriching tasks to prevent inappropriate deprivation. Animals were scanned under anesthesia (induced with ketamine and glycopyrrolate and maintained with inhalation isoflurane). Core temperature was kept about 37° C. with a heated water blanket. The head was secured in a head holder with the brain in the center of the field of view.
PET scans were collected from O-120 min with the following time frames: 3×1 min, 4×2 min, 3×3 min and 20×5 min. Emission data were corrected for dead time, scatter and attenuation and then reconstructed to a final resolution of 2.0 mm full-width half maximum in all 3 dimensions at the center of the field of view. PET and MRI images were co-registered using automated image registration program (AIR). For quantitative analyses, three-dimensional ROI (the global brain) was identified on the MRI and transformed to the reconstructed PET images to obtain time-activity curves. Activity measures were standardized to body weight and the dose of radioactivity injected to yield standardized uptake value (SUV).

T1 sequence (P48303 whole entry): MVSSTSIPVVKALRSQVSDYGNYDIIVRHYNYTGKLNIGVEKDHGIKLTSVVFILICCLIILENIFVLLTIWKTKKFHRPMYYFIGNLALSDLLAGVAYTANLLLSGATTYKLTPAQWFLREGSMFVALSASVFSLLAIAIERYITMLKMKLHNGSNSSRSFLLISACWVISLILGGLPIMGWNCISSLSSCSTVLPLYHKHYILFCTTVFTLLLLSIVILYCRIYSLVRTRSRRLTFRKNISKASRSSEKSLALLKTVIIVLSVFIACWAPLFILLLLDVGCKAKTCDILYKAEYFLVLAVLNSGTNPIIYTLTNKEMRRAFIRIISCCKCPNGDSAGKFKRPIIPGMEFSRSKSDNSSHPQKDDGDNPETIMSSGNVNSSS

## OCCOCc1ccc(-c2noc(-c3ccc(OCC[18F])c(C(F)(F)F)c3)n2)cc1 [[^18F]12a]
[1]
  Reduction of radioactivity by SEW2871 blocking: ~30%
[2]; 5 min p.i.
  Tissue uptake, Blood: 0.36 % ID/g and 0.36 ± 0.04 % ID/g
  Tissue uptake, Bone: 0.40 ± 0.04 % ID/g
  Tissue uptake, Brain: 1.31 % ID/g and 1.31 ± 0.06 % ID/g
  Tissue uptake, Fat: 0.24 % ID/g and 0.24 ± 0.03 % ID/g
  Tissue uptake, Heart: 1.16 % ID/g and 1.16 ± 0.01 % ID/g
  Tissue uptake, Kidney: 2.14 % ID/g and 2.14 ± 0.14 % ID/g
  Tissue uptake, Liver: 4.87 % ID/g and 4.87 ± 0.27 % ID/g
  Tissue uptake, Lung: 1.31 % ID/g and 1.31 ± 0.01 % ID/g
  Tissue uptake, Muscle: 0.28 % ID/g and 0.28 ± 0.02 % ID/g
  Tissue uptake, Pancreas: 2.19 % ID/g and 2.19 ± 0.04 % ID/g
  Tissue uptake, Spleen: 1.14 % ID/g and 1.14 ± 0.10 % ID/g
  Tissue uptake, Thymus: 0.79 % ID/g and 0.79 ± 0.12 % ID/g
[2]; 30 min p.i.
  Tissue uptake, Blood: 0.51 ± 0.01 % ID/g
  Tissue uptake, Bone: 0.34 ± 0.02 % ID/g
  Tissue uptake, Brain: 1.34 ± 0.08 % ID/g
  Tissue uptake, Fat: 1.63 ± 0.36 % ID/g
  Tissue uptake, Heart: 1.01 ± 0.08 % ID/g
  Tissue uptake, Kidney: 1.43 % ID/g and 1.43 ± 0.08 % ID/g
  Tissue uptake, Liver: 3.58 % ID/g and 3.58 ± 0.28 % ID/g
  Tissue uptake, Lung: 1.20 ± 0.06 % ID/g
  Tissue uptake, Muscle: 0.54 ± 0.01 % ID/g
  Tissue uptake, Pancreas: 1.52 % ID/g and 1.52 ± 0.04 % ID/g
  Tissue uptake, Spleen: 0.79 % ID/g and 0.79 ± 0.06 % ID/g
  Tissue uptake, Thymus: 0.68 ± 0.06 % ID/g
[2]; 60 min p.i.
  Tissue uptake, Blood: 0.57 ± 0.03 % ID/g
  Tissue uptake, Bone: 0.34 ± 0.01 % ID/g
  Tissue uptake, Brain: 1.13 ± 0.05 % ID/g
  Tissue uptake, Fat: 1.50 ± 0.08 % ID/g
  Tissue uptake, Heart: 0.85 ± 0.04 % ID/g
  Tissue uptake, Kidney: 1.18 ± 0.04 % ID/g
  Tissue uptake, Liver: 3.32 ± 0.33 % ID/g
  Tissue uptake, Lung: 1.01 ± 0.04 % ID/g
  Tissue uptake, Muscle: 0.49 ± 0.03 % ID/g
  Tissue uptake, Pancreas: 1.21 ± 0.10 % ID/g
  Tissue uptake, Spleen: 0.65 ± 0.02 % ID/g
  Tissue uptake, Thymus: 0.58 ± 0.04 % ID/g
[2]; 120 min p.i.
  Tissue uptake, Blood: 0.66 ± 0.04 % ID/g
  Tissue uptake, Bone: 0.42 ± 0.02 % ID/g
  Tissue uptake, Brain: 0.87 ± 0.04 % ID/g
  Tissue uptake, Fat: 1.91 ± 0.19 % ID/g
  Tissue uptake, Heart: 0.74 ± 0.03 % ID/g
  Tissue uptake, Kidney: 1.01 ± 0.04 % ID/g
  Tissue uptake, Liver: 3.23 ± 0.10 % ID/g
  Tissue uptake, Lung: 0.87 ± 0.02 % ID/g
  Tissue uptake, Muscle: 0.42 ± 0.01 % ID/g
  Tissue uptake, Pancreas: 0.98 ± 0.05 % ID/g
  Tissue uptake, Spleen: 0.55 ± 0.03 % ID/g
  Tissue uptake, Thymus: 0.51 ± 0.05 % ID/g
[2]; bone radioactivity unchanged
  Defluorination in vivo (bone uptake 5 to 120 min): no metabolic defluorination in vivo
[3]; EAE and sham rats
  Visualization of rat lumbar spinal cord by microPET: clear visualization of lumbar spinal cord
[3]; EAE rats
  2TCM Vd: 2.18 ± 0.20 mL/g
  LoganAIF Vd: 2.18 ± 0.20 mL/g
[3]; EAE rats, summed SUV values 10-60 min post injection, n=3-4
  Tracer uptake in lumbar spinal cord, EAE: 1.42±0.14 SUV
[3]; Sham rats
  2TCM Vd: 1.80 ± 0.20 mL/g
  LoganAIF Vd: 1.77 ± 0.24 mL/g
[3]; microPET, 10-60 min post injection
  Increase of tracer uptake in EAE rat lumbar spinal cord compared with shams: 29.5%
[3]; sham rats, 10-60 min post injection
  Averaged tracer uptake in sham rat spinal cord: 1.0-1.1
[3]; sham rats, summed SUV values 10-60 min post injection, n=3-4
  Tracer uptake in lumbar spinal cord, sham: 1.10±0.06 SUV
[4]; microPET
  Max SUV value in total brain: ~2.9 SUV
[4]; microPET, listed as 18F-TZ4877
  Blood-brain barrier crossing, NHP brain: able to cross the blood brain barrier; also recorded: able to cross the BBB
[4]; post injection
  Time to max SUV in total brain: ~5 min
